Experimental data as given in ChEMBL document CHEMBL5291721, “A preclinical secondary pharmacology resource illuminates target-adverse drug reaction associations of marketed drugs” (Nat Commun, 2023).

Columns and labels:
[1] = biological target: Acetylcholinesterase (Homo sapiens, UniProt P22303); type: functional
[2] = biological target: T1, Adenosine receptor A3 (Homo sapiens, UniProt P0DMS8)
T1 sequence (P0DMS8 whole entry): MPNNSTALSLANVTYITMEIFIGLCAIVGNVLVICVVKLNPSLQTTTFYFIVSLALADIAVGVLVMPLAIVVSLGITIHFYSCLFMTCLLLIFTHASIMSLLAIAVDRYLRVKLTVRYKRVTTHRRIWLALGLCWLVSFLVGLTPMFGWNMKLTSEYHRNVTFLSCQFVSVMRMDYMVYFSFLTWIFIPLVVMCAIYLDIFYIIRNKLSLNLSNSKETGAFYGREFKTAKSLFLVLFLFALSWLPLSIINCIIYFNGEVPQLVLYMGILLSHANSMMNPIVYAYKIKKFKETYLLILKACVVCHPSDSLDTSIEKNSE

[3] = biological target: T2, Alpha-1A adrenergic receptor (Homo sapiens, UniProt P35348); type: functional, cell-based
T2 sequence (P35348 whole entry): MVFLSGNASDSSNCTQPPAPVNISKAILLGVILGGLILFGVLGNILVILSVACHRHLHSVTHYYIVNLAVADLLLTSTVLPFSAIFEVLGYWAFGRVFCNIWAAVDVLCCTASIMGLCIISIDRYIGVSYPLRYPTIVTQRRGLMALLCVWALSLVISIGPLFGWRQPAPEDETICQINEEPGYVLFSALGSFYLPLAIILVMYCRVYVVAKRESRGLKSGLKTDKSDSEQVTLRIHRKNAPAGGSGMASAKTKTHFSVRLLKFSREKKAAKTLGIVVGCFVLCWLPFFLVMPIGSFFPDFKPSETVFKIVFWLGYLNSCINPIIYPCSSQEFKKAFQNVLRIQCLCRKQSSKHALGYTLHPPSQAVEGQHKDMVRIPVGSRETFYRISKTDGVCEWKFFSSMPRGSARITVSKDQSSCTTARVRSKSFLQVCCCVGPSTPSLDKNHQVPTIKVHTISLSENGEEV

[4] = biological target: T2, Alpha-1A adrenergic receptor; type: functional, cell-based; remark: listed apart in the source
[5] = biological target: T3, Alpha-2A adrenergic receptor (Homo sapiens, UniProt P08913)
T3 sequence (P08913 whole entry): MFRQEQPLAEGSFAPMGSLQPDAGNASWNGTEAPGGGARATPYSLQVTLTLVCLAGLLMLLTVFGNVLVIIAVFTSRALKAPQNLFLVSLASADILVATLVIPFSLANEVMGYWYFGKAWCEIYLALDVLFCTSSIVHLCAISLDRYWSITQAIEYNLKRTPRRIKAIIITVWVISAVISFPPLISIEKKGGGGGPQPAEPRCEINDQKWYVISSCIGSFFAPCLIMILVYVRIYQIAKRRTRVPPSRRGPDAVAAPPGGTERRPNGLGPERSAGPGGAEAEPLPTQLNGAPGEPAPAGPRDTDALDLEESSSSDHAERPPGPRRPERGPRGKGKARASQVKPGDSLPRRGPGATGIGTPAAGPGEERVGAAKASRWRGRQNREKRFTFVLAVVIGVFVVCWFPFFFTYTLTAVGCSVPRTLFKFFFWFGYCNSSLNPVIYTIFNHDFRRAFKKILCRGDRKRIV

[6] = biological target: D(1A) dopamine receptor (Homo sapiens, UniProt P21728)
[7] = biological target: D(3) dopamine receptor (Homo sapiens, UniProt P35462)
[8] = biological target: T4, Estrogen receptor (Homo sapiens, UniProt P03372)
T4 sequence (P03372 whole entry): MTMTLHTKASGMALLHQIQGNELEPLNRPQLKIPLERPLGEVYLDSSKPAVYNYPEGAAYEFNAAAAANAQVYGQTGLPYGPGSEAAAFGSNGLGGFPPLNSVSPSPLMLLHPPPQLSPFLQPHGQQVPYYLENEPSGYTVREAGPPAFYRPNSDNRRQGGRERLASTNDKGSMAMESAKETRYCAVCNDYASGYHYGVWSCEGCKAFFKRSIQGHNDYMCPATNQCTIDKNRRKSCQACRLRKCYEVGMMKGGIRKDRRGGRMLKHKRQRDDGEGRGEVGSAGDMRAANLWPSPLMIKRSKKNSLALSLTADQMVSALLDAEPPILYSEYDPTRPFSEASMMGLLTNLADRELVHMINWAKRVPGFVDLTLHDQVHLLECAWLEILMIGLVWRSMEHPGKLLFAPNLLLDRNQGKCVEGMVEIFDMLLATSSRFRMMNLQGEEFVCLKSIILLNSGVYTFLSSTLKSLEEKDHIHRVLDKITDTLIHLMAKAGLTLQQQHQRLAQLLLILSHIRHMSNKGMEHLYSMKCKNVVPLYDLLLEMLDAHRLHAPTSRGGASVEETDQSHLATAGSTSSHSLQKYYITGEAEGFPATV

[9] = biological target: Histamine H3 receptor (Homo sapiens, UniProt Q9Y5N1)
[10] = biological target: Mu-type opioid receptor (Homo sapiens, UniProt P35372)
[11] = biological target: cGMP-inhibited 3',5'-cyclic phosphodiesterase 3A (Homo sapiens, UniProt Q14432); type: functional
[12] = biological target: T5, Prostaglandin G/H synthase 1 (Homo sapiens, UniProt P23219); type: functional
[13] = biological target: T5, Prostaglandin G/H synthase 1; type: functional; remark: listed apart in the source
[14] = biological target: Sodium-dependent noradrenaline transporter (Homo sapiens, UniProt P23975)
[15] = biological target: Sodium-dependent serotonin transporter (Homo sapiens, UniProt P31645)
[16] = biological target: T6, Thromboxane A2 receptor (Homo sapiens, UniProt P21731); type: functional, cell-based
T6 sequence (P21731 whole entry): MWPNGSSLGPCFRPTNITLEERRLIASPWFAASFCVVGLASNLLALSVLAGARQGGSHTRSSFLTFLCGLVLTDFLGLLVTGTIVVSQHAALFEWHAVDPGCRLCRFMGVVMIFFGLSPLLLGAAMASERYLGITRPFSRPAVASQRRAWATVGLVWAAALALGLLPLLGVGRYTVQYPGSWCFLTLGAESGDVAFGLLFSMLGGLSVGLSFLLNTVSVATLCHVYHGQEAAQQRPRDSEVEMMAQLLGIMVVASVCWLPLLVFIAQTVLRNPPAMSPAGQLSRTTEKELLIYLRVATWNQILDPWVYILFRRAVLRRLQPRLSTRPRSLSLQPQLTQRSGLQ

[17] = biological target: T6, Thromboxane A2 receptor; type: functional, cell-based; remark: listed apart in the source
Also: assay procedure not described here.

cGMP-inhibited 3',5'-cyclic phosphodiesterase 3A, sequence (Q14432 whole entry): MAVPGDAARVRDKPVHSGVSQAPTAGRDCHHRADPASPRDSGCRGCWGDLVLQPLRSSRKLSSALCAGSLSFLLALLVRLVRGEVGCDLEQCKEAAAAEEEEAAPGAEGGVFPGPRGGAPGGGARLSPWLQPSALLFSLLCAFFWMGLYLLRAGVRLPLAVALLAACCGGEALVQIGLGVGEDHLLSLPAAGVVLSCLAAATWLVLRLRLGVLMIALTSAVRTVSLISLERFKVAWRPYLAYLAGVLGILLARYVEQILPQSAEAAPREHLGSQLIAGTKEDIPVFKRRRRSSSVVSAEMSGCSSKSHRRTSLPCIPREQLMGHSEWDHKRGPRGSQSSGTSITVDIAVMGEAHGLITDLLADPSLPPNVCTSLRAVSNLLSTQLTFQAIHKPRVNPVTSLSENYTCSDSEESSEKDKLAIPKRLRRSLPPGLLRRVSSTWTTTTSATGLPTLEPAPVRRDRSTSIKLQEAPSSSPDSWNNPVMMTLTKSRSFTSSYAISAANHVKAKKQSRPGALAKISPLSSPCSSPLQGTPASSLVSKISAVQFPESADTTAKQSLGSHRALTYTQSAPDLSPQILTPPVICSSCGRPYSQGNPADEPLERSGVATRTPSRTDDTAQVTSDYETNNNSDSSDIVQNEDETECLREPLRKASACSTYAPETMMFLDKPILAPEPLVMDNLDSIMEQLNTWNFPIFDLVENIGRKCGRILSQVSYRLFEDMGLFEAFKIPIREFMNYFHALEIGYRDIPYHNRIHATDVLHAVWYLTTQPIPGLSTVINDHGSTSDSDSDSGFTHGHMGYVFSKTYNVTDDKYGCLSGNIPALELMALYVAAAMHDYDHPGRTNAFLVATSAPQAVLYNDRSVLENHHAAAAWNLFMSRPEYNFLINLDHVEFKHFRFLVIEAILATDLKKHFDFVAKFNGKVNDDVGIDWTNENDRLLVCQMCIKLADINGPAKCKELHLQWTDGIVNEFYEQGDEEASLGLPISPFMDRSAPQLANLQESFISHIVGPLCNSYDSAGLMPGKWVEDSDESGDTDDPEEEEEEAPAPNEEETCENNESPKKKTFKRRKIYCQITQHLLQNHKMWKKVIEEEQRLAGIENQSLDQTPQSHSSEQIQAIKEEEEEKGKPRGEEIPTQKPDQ
Sodium-dependent serotonin transporter, sequence (P31645 whole entry): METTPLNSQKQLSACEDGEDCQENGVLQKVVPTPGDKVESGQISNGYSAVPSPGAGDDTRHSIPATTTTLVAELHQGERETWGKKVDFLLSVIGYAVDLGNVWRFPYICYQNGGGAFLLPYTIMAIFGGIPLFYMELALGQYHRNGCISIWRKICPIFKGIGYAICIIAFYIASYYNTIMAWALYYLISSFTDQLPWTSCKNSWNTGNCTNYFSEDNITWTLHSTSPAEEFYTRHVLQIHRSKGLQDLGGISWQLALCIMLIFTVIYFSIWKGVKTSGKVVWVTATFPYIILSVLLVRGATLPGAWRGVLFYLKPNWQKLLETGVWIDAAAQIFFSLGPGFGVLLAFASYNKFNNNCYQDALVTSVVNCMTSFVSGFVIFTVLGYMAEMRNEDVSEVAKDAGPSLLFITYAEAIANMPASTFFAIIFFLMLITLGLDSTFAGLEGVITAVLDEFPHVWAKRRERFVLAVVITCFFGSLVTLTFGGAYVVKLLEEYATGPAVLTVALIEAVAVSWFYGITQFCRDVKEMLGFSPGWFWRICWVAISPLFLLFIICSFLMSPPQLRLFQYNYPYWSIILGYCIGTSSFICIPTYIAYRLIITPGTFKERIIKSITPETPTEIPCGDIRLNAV
Histamine H3 receptor, sequence (Q9Y5N1 whole entry): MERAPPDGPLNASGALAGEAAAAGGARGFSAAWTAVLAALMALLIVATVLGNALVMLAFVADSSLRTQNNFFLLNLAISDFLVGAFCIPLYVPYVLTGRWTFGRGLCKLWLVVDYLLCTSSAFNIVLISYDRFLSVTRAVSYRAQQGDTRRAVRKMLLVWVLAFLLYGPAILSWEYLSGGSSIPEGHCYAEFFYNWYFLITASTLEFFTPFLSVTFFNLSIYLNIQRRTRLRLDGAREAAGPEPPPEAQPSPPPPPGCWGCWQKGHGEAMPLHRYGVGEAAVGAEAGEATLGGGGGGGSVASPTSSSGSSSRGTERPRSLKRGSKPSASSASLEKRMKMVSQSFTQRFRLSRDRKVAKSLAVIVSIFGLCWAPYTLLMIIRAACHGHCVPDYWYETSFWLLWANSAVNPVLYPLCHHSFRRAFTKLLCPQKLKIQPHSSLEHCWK
Sodium-dependent noradrenaline transporter, sequence (P23975 whole entry): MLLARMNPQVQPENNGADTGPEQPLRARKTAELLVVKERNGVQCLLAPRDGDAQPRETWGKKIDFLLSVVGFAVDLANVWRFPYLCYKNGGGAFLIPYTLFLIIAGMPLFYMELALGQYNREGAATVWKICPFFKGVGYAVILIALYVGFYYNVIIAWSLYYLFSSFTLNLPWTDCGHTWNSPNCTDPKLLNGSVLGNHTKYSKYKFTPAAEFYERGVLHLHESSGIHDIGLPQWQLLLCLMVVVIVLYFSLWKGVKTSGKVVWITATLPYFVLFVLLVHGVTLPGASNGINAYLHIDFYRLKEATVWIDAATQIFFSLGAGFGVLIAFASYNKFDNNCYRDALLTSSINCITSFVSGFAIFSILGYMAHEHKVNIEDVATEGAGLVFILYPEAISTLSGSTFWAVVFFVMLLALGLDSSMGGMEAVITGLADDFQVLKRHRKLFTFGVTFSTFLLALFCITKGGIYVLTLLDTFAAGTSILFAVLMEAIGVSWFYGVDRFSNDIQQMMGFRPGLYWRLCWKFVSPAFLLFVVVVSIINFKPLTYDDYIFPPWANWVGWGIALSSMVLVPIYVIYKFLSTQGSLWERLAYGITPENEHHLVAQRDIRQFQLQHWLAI
Acetylcholinesterase, sequence (P22303 whole entry): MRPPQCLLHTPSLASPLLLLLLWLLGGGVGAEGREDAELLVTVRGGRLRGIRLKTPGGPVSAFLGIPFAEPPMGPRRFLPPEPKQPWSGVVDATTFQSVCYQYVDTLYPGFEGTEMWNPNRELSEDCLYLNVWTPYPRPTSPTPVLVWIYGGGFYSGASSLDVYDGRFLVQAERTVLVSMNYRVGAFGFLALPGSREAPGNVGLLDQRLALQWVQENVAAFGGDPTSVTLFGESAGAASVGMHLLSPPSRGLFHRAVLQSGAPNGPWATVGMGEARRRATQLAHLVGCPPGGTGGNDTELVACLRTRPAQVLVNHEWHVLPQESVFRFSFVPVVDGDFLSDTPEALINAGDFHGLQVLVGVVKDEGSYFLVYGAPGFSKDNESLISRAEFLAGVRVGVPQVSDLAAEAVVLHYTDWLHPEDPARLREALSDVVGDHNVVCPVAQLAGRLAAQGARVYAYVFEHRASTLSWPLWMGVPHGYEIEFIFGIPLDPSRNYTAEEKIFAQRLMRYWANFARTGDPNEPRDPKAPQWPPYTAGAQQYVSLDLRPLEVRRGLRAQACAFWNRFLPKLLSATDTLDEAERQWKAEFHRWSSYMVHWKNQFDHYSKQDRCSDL
Mu-type opioid receptor, sequence (P35372 whole entry): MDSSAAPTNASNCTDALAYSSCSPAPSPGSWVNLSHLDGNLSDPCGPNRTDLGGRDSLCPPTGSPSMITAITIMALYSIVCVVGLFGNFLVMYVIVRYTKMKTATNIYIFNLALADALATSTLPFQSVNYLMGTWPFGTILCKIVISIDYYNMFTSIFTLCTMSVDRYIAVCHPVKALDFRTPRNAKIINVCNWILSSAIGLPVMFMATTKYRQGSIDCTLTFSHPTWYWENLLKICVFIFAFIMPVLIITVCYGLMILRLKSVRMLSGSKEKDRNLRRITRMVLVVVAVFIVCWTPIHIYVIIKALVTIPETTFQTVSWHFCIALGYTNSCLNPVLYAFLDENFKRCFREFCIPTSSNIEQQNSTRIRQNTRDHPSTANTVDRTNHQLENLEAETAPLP
D(3) dopamine receptor, sequence (P35462 whole entry): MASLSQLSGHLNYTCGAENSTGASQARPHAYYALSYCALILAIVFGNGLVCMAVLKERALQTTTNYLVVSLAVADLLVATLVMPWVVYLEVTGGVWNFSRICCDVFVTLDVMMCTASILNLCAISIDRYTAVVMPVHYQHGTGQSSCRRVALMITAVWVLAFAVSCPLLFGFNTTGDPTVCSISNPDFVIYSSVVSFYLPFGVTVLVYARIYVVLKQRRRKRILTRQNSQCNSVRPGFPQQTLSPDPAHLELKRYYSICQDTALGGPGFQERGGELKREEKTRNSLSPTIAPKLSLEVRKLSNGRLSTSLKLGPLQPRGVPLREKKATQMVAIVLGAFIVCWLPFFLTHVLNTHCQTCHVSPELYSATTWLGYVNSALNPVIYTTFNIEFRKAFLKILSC
T5 sequence (P23219 whole entry): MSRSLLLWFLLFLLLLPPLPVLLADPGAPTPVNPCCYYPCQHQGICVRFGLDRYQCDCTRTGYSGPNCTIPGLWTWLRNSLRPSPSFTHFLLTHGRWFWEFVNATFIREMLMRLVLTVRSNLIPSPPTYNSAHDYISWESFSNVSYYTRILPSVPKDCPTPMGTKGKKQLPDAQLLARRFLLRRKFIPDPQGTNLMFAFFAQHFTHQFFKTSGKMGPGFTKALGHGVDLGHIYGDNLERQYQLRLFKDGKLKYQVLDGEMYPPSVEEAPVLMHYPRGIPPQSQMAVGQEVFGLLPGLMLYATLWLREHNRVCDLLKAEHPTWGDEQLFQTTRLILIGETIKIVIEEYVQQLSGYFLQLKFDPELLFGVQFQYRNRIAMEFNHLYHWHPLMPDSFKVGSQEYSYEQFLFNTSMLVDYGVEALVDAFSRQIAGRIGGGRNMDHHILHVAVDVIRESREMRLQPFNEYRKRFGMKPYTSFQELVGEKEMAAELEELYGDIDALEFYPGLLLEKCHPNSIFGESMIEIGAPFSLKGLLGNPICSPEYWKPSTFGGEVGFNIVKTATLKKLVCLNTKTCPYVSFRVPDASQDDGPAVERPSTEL

Row | SMILES | AC50 [1] [µM] | AC50 [2] [µM] | AC50 [3] [µM] | AC50 [4] [µM] | AC50 [5] [µM] | AC50 [6] [µM] | AC50 [7] [µM] | AC50 [8] [µM] | AC50 [9] [µM] | AC50 [10] [µM] | AC50 [11] [µM] | AC50 [12] [µM] | AC50 [13] [µM] | AC50 [14] [µM] | AC50 [15] [µM] | AC50 [16] [µM] | AC50 [17] [µM]
1 | CNC(=O)C[C@@H](N)C(=O)N[C@@H](C(=O)N[C@@H]1C(=O)N2[C@@H]1SC(C)(C)[C@@H]2C(=O)O)c1ccc(O)cc1 [ASPOXICILLIN] | > 30 | > 30 | > 30 | > 30 | > 30 | > 30 | > 30 | > 30 | > 30 | > 30 | > 30 | > 30 | > 30 | > 30 | > 30 | > 30 | > 30
2 | COC(=O)C1=C(C)NC(C)=C(C(=O)O[C@H]2CCN(Cc3ccccc3)C2)[C@H]1c1cccc([N+](=O)[O-])c1 [BARNIDIPINE] | > 30 | 4.65 | > 30 | 1.31 | 6.54 | 8.89 | 4.3 | > 30 | > 30 | 3.24 | > 30 | > 30 | > 30 | 0.635 | 13.6 | > 30 | 4.47
3 | Cc1nnc(SCC2=C(C(=O)O)N3C(=O)[C@@H](NC(=O)Cn4cc(Cl)c(=O)c(Cl)c4)[C@H]3SC2)s1 [CEFAZEDONE] | > 30 | > 30 | > 30 | > 30 | > 30 | > 30 | > 30 | > 30 | > 30 | > 30 | > 30 | 8.23 | 24.8 | > 30 | > 30 | > 30 | > 30
4 | Nc1ncnc(Nc2ccc(Cl)cc2)n1 [CHLORAZANIL] | > 30 | 7.95 | > 30 | > 30 | > 30 | > 30 | > 30 | > 30 | > 30 | > 30 | > 30 | > 30 | > 30 | 5.4 | > 30 | > 30 | > 30
5 | CCC[C@@H]1C[C@@H](C(=O)N[C@@H]([C@H]2O[C@H](SC)[C@H](OP(=O)(O)O)[C@@H](O)[C@H]2O)[C@H](C)Cl)N(C)C1 [CLINDAMYCIN PHOSPHATE] | > 30 | > 30 | > 30 | > 30 | > 30 | > 30 | > 30 | > 30 | > 30 | > 30 | > 30 | > 30 | > 30 | > 30 | > 30 | > 30 | > 30
6 | C[C@@H]1C[C@H]2[C@@H]3C[C@H](F)C4=CC(=O)C=C[C@]4(C)[C@@]3(Cl)[C@@H](O)C[C@]2(C)[C@H]1C(=O)COC(=O)C(C)(C)C [CLOCORTOLONE PIVALATE] | > 30 | 5.52 | > 30 | > 30 | > 30 | > 30 | > 30 | > 30 | > 30 | > 10 | > 30 | > 30 | > 30 | > 30 | > 30 | > 30 | > 30
7 | O=P(O)(O)C(Cl)(Cl)P(=O)(O)O [CLODRONIC ACID] | > 30 | > 30 | > 30 | > 30 | > 30 | > 30 | > 30 | > 30 | > 30 | > 30 | > 30 | > 30 | > 30 | > 30 | > 30 | > 30 | > 30
8 | Nc1ccncc1 [DALFAMPRIDINE] | > 30 | > 30 | > 30 | > 30 | > 30 | > 30 | > 30 | > 30 | > 30 | > 30 | > 30 | > 30 | > 30 | > 30 | > 30 | > 30 | > 30
9 | C[C@@H](O)[C@H]1C(=O)N2C(C(=O)O)=C([C@H]3CCCO3)S[C@H]12 [FAROPENEM] | > 30 | > 30 | > 30 | > 30 | > 30 | > 30 | > 30 | > 30 | > 30 | > 30 | > 30 | 11.4 | 14.7 | > 30 | > 30 | > 30 | > 30
10 | CCOC(=O)c1ccc(OC(=O)CCCCCNC(=N)N)cc1 [GABEXATE] | > 30 | > 30 | > 30 | > 30 | > 30 | > 30 | > 30 | > 30 | > 30 | > 30 | > 30 | > 30 | > 30 | 9.03 | > 30 | > 30 | > 30
